Experimental data as given in PubChem BioAssay (NCI).
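The compound was tested at five concentrations on cells cultured in 96-well plates, with a 48-hour exposure period. At the GI50, growth is halved. TGI: total growth inhibition.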 *1 amine or outer side, *2 acyl side, *3 side chain or, on linkers, in order; H or OH if unused. Where a SMILES comes first, the peptide text is derived from it. CO = O=C([*:1])[*:2]

Tests used:
Experiment in all cases: NCI tumour cell line growth inhibition, 48 h
[1] = test system: COLO 205 colon
[2] = test system: HCC-2998 colon
[3] = test system: HCT-116 colon
[4] = test system: HOP-62 NSCLC
[5] = test system: HT29 colon
[6] = test system: M14 melanoma
[7] = test system: OVCAR-4 ovarian
[8] = test system: SF-268 CNS
[9] = test system: SNB-19 CNS
[10] = test system: HL-60(TB) leukemia

Structure (SMILES)	GI50 [1] [µM]	TGI [1] [µM]	GI50 [2] [µM]	TGI [2] [µM]	GI50 [3] [µM]	TGI [3] [µM]	GI50 [4] [µM]	TGI [4] [µM]	GI50 [5] [µM]	TGI [5] [µM]	GI50 [6] [µM]	TGI [6] [µM]	GI50 [7] [µM]	TGI [7] [µM]	GI50 [8] [µM]	TGI [8] [µM]	GI50 [9] [µM]	TGI [9] [µM]	TGI [10] [µM]	GI50 [10] [µM]
Cc1cc(S(=O)(=O)/N=C(\N)n2nc(C)c(C)c2C)c(SCc2ccccc2)cc1Cl	74	> 100	> 100	> 100	38.5	> 100	> 100	> 100	> 100	> 100	> 100	> 100	19.7	> 100	> 100	> 100	> 100	> 100	–	–
CO/C=C/c1cc2c(cc1C(OC)OC)OCO2	–	–	–	> 100	–	> 100	–	75	–	> 100	–	87.9	–	> 100	–	> 100	–	> 100	18.9	–
Cn1cc(C(=O)/C(Cl)=C(\Cl)C(=O)O)c2ccccc21	–	–	–	> 100	–	> 100	–	> 100	–	> 100	–	> 100	–	> 100	–	–	–	–	> 100	–
CCCCCCCCO/N=C\c1c2c(O)c3c(O)c(C)c4c(c3c1O)C(=O)C(C)(O/C=C\C(OC)C(C)C(OC(C)=O)C(C)C(O)C(C)C(O)C(C)/C=C\C=C(\C)C(=O)N2)O4 (stereo not drawn)	1.35	3.59	2.05	7.03	1.06	2.19	1.63	5.78	–	–	1.57	5.4	1.61	5.58	2.02	8.18	2.42	8.93	–	–
COc1cc(-c2ccc(-[n+]3nc(-c4ccc([N+](=O)[O-])cc4)nn3-c3ccc([N+](=O)[O-])cc3)c(OC)c2)ccc1-[n+]1nc(-c2ccc([N+](=O)[O-])cc2)nn1-c1ccc([N+](=O)[O-])cc1	–	–	9.21	29.3	3.38	> 31.6	1.84	4.54	3.43	15.2	14.9	67.2	3.56	55.7	1.66	5.38	11.9	69.3	> 46.2	1.91
COC1=CC(C)C2C[C@H]3O[C@H](O)C[C@H]4C(C)C(=O)C(O)C([C@@]2(C)C1=O)[C@@]34C (stereo partly drawn)	–	> 100	–	> 100	–	> 100	–	–	–	> 100	–	> 100	–	–	–	–	–	–	–	–
Cc1cccc(Oc2ccc(Nc3ncnc4ccc(NC(=O)CN5CCN(C)CC5)cc34)cc2Cl)c1	–	–	1.58	3.04	–	–	–	–	–	–	1.72	3.38	1.72	4.3	1.46	3.16	1.95	4.79	–	–
CC(=O)O[C@H]1C(=O)[C@@]2(C)[C@H]([C@H](OC(=O)c3ccccc3)[C@]3(O)C[C@H](OC(=O)[C@H](OC(=O)CCC(=O)OC4CCC(S/N=C(N)/N=C(\N)N(C)C)CC4)[C@@H](NC(=O)c4ccccc4)c4ccccc4)C(C)=C1C3(C)C)[C@]1(OC(C)=O)CO[C@@H]1C[C@@H]2O (stereo partly drawn)	0.00952	0.0406	0.0147	0.727	< 0.005	> 50	0.0133	> 50	< 0.005	> 50	–	–	0.0444	> 50	0.0212	> 50	0.0205	> 50	0.0234	0.0101
C=C1C(=O)O[C@H]2[C@H]1CC/C(Cn1cc(Cn3ccc4cc(Cl)ccc43)nn1)=C\CC[C@@]1(C)O[C@@H]21	1.69	3.5	1.98	3.92	1.5	3.12	4.9	20.1	1.83	4.46	1.65	3.63	1.53	3.02	1.65	3.13	1.97	4.49	–	–
CC(C)C(NC(=O)C(CCCN=C(N)N)NC(=O)NC(Cc1ccccc1)C(=O)O)C(=O)NC(C=O)CCCN=C(N)N (stereo not drawn) ({Phe-CO}-Arg-Val-Arg-aldehyde; configuration not given here)	> 5	> 5	0.0202	> 5	> 5	> 5	> 5	> 5	> 5	> 5	> 5	> 5	> 5	> 5	> 5	> 5	> 5	> 5	–	–
CC1(C)OC(=O)C=C(O)O1.CC1(C)OC(=O)C=C(O)O1.CCO.Oc1ccc2c(c1)CCC2.[Ti]	> 100	> 100	–	–	> 100	> 100	> 100	> 100	> 100	> 100	> 100	> 100	> 100	> 100	> 100	> 100	56.3	> 100	> 100	> 100
O=C(CC1(O)C(=O)Nc2ccccc21)c1ccc(O)cc1O (stereo not drawn)	–	> 100	–	–	–	> 100	–	> 100	–	> 100	–	> 100	–	> 100	–	> 100	–	> 100	> 100	–
N#C/C(=C\c1ccc(Br)cc1)n1nnc2cc(F)c(F)cc21	1.99	4.04	2.02	3.67	1.56	3.44	1.93	4.27	1.85	3.62	–	–	1.95	6.09	–	–	1.64	3.07	4.96	2.07
CC(=O)NC(Cc1c[nH]c2ccccc12)C(=O)O (stereo not drawn)	–	> 100	–	–	–	> 100	–	> 100	–	> 100	–	> 100	–	> 100	–	> 100	–	> 100	> 100	–
COc1ccc(C2c3cc4c(cc3OC(O)(CO)C2C(=O)O)OCO4)c(OC)c1OC (stereo not drawn) (tested in a mixture with another compound)	–	> 100	–	–	–	> 100	–	> 100	–	> 100	–	> 100	–	> 100	–	–	–	> 100	> 100	–
CCC[CH2][Sn]([CH2]CCC)([O]C(=O)c1cccc(F)c1F)[O][Sn]([CH2]CCC)([CH2]CCC)[O]C(=O)c1cccc(F)c1F	0.288	0.969	0.617	1.92	0.257	0.848	1.6	3	0.812	2.07	0.274	0.891	0.459	1.28	0.157	0.541	0.573	1.7	–	–
C/C=C/CP(=O)(c1ccccc1)c1ccccc1	–	> 100	–	> 100	–	> 100	–	> 100	–	> 100	–	> 100	–	> 100	–	–	–	> 100	> 100	–
N#Cc1c(N)nc(N2CCOCC2)c(C#N)c1-c1cccc(O)c1	69.3	> 100	68.5	> 100	> 100	> 100	78.3	> 100	> 100	> 100	> 100	> 100	26.5	> 100	> 100	> 100	> 100	> 100	–	–
C/C(=N\[N+](C)(C)C)C(c1ccccc1)C1(c2ccccc2)C(c2ccccc2)=C1c1ccccc1 (stereo not drawn)	–	–	–	> 100	–	> 100	–	> 100	–	> 100	–	> 100	–	> 100	–	–	–	> 100	> 100	–
Cn1c(Cc2ccccc2)nc2cc3ccccc3cc21	37	> 100	22.8	49.9	21	42.2	38.3	> 100	43.3	> 100	26.4	64.3	70.4	> 100	34.7	> 100	39.3	> 100	–	–
C/C=C/C/C=C/CCC(=O)C1OC1C(N)=O (stereo not drawn)	–	33.5	–	31.1	–	28.2	–	15.8	–	33.1	–	29.2	–	23.8	–	26.9	–	32.1	–	–
CCOC(=O)c1ccc(C(O)CC(=O)OC(C)(C)C)[nH]1 (stereo not drawn)	41.3	> 100	33	> 100	23.2	68.4	45.1	> 100	59	> 100	27	67.3	38.1	> 100	28.7	> 100	42.9	> 100	–	–
O=C1OC2(c3ccccc31)c1cc(I)c(O)c(I)c1Oc1c2cc(I)c(O)c1I	–	> 100	–	–	–	> 100	–	> 100	–	> 100	–	> 100	–	> 100	–	> 100	–	> 100	–	–
COc1cc(C(=O)O)ccc1NC(=O)[C@@H]1N[C@@H](CC(C)(C)C)[C@](C#N)(c2ccc(Cl)cc2F)[C@H]1c1cccc(Cl)c1F	3.1	12	4.62	13.3	–	–	6.04	17.4	3.39	22.2	3.18	> 30.1	4.56	29.6	4.62	30.5	5.6	31.2	6.71	2.28
Fc1ccc(Nc2ccc3cc(OCCCN4CCOCC4)ccc3n2)cc1F	1.96	3.84	2.22	4.42	4.5	> 100	4.54	45.9	2.06	5.47	–	–	4.14	> 100	6.55	> 100	2.78	7.99	–	–
N#Cc1c(SCc2ccccc2)nc2[nH]c(=S)[nH]c(=S)c2c1-c1ccco1	41.2	> 100	–	–	21.6	> 100	58.4	> 100	> 100	> 100	> 100	> 100	> 100	> 100	32.4	> 100	62.2	> 100	> 100	40.6
O=C1NC(=O)[C@H]2C3C=CC([C@@H]12)[C@@H]1C(=O)NC(=O)[C@H]31	–	> 100	–	> 100	–	> 100	–	> 100	–	–	–	> 100	–	–	–	> 100	–	> 100	> 100	–
O=C(CCc1ccc(O)c(O)c1)c1ccc(O)c(O)c1O	–	34.3	–	> 100	–	> 100	–	–	–	84	–	41.7	–	78.5	–	60.6	–	> 100	32.6	–
O=C(Nc1cccc(-c2nc3ccccc3[nH]2)c1)c1cccc(NC(=O)c2ccco2)c1	3.49	10.6	10	21.5	1.74	3.11	2.06	4.3	1.91	3.4	–	–	1.73	3.1	1.99	3.78	2.86	8.19	17.4	5.43
COc1cc2c(cc1OCCCCCN1CCN(c3cc(=O)oc4c(C)c(OC)ccc34)CC1)N=C[C@@H]1CCCN1C2=O	< 0.01	0.0849	0.0111	0.0372	–	–	< 0.0107	0.0301	< 0.01	0.0428	0.0101	0.0225	< 0.0178	0.189	< 0.01	0.318	< 0.0143	8.82	1.2	< 0.01
